Structures are written as SMILES.

As usually defined, the EC50 is the concentration giving half of the maximal effect. In general, Emax refers to the size of the effect at its maximum, as opposed to the concentration needed.

Experiment [1] has as its target T1, human mAChR M1 (Homo sapiens, UniProt P11229).
T1 construct: host or cells: CHO-K1 cells (ATCC), stably transfected using Lipofectamine2000
T1 sequence (P11229 1-460): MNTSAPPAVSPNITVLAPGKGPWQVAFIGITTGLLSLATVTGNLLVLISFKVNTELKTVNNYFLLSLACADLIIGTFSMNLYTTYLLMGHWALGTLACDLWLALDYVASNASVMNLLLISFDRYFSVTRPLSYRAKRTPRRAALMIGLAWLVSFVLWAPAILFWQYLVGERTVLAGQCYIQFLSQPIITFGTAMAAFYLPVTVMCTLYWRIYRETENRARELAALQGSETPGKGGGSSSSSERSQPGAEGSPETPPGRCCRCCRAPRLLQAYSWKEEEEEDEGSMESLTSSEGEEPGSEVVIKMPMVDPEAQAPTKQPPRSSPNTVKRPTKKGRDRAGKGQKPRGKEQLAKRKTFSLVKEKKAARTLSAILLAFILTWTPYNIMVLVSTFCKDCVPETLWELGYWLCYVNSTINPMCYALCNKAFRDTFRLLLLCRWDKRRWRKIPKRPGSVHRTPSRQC
Nature of the experiment: mAChR M1 cell-based functional assay (calcium mobilization), PAM activity: increase in the EC20 acetylcholine response. The note with it: CHO-K1 cells expressing hM1; potentiation of EC20 acetylcholine response. Summed up: (§1)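 Fluorescence ratio calcium read-out (Fluo-4 AM, FDSS 6000) in human M1-expressing CHO-K1 cells. Agonist activity taken as concentration-dependent rise after compound addition; potentiation as enhancement of a subsequent EC20 acetylcholine challenge. Curves from 11-point threefold dilutions fitted by four-parameter logistic; Emax expressed versus acetylcholine maximum.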
(In general: Calcium assays in cells follow changes in intracellular calcium, usually with a dye or a luminescent sensor.)

Experiment [2] addresses T1, human mAChR M1. In words: mAChR M1 cell-based functional assay (calcium mobilization), agonist activity upon compound addition. As to conditions: CHO-K1 cells expressing hM1; for EC50: compound alone, before acetylcholine addition; for Emax: relative to the maximum for acetylcholine. Summed up:
as §1

On to `Cn1cc2c(-c3cc(F)c(Cn4cc(C(=O)N[C@H]5CCCC[C@@H]5O)c5nccn5c4=O)c(F)c3)cccc2n1` [Compound B20, 6-(2,6-difluoro-4-(2-methyl-2H-indazol-4-yl)benzyl)-N-((1S,2S)-2-hydroxycyclohexyl)-5-oxo-5,6-dihydroimidazo[1,2-c]pyrimidine-8-carboxamide], for which, at human mAChR M1 [1], the EC50 was found to be 0.24 µM and the Emax is 51%. On human mAChR M1 [2], the EC50 stood at 2.79 µM and the Emax was 63%.
For `Cn1cc2c(-c3cc(F)c(Cn4cc(C(=O)N[C@H]5CCC[C@@H]5O)c5nccn5c4=O)c(F)c3)cccc2n1` [Compound B21, 6-(2,6-difluoro-4-(2-methyl-2H-indazol-4-yl)benzyl)-N-((1S,2S)-2-hydroxycyclopentyl)-5-oxo-5,6-dihydroimidazo[1,2-c]pyrimidine-8-carboxamide] the same measures were 0.9 µM, 59%, > 10 µM and < 5%.
For `Cn1cc2c(-c3cc(F)c(Cn4cc(C(=O)N[C@H]5CC[C@@H]5O)c5nccn5c4=O)c(F)c3)cccc2n1` [Compound B22, 6-(2,6-difluoro-4-(2-methyl-2H-indazol-4-yl)benzyl)-N-((1S,2S)-2-hydroxycyclobutyl)-5-oxo-5,6-dihydroimidazo[1,2-c]pyrimidine-8-carboxamide], in that order: 1.27 µM, 59%, > 10 µM and 19%.
For `Cc1cn2c(=O)n(Cc3ccc(-c4cnn(C)c4)cc3F)cc(C(=O)N[C@H]3CCOC[C@@H]3O)c2n1` [Compound B23, 6-(2-Fluoro-4-(1-methyl-1H-pyrazol-4-yl)benzyl)-N-((3R,4S)-3-hydroxytetrahydro-2H-pyran-4-yl)-2-methyl-5-oxo-5,6-dihydroimidazo[1,2-c]pyrimidine-8-carboxamide] the same measures were 7.85 µM, 39%, > 10 µM and < 5%.
Regarding `Cc1cn2c(=O)n(Cc3ccc(-c4cnn(C)c4)cc3F)cc(C(=O)N[C@H]3CCCC[C@@H]3O)c2n1` [Compound B24, 6-(2-fluoro-4-(1-methyl-1H-pyrazol-4-yl)benzyl)-N-((1S,2S)-2-hydroxycyclohexyl)-2-methyl-5-oxo-5,6-dihydroimidazo[1,2-c]pyrimidine-8-carboxamide], at human mAChR M1 [1], the EC50 was ≥ 10 µM and the Emax is 41%. In addition, on human mAChR M1 [2], the EC50 is > 10 µM and the Emax is < 5%.
On to `Cc1cn2c(=O)n(Cc3ccc(-c4ccn(C)n4)cc3F)cc(C(=O)N[C@H]3CCOC[C@@H]3O)c2n1` [Compound B25, 6-(2-fluoro-4-(1-methyl-1H-pyrazol-3-yl)benzyl)-N-((3R,4S)-3-hydroxytetrahydro-2H-pyran-4-yl)-2-methyl-5-oxo-5,6-dihydroimidazo[1,2-c]pyrimidine-8-carboxamide], for which, at human mAChR M1 [1], the EC50 worked out at 9.29 µM and the Emax was 33%. On human mAChR M1 [2], the EC50 was > 10 µM and the Emax is < 5%.
For `Cc1cn2c(=O)n(Cc3ccc(-c4ccn(C)n4)cc3F)cc(C(=O)N[C@H]3CCCC[C@@H]3O)c2n1` [Compound B26, 6-(2-fluoro-4-(1-methyl-1H-pyrazol-3-yl)benzyl)-N-((1S,2S)-2-hydroxycyclohexyl)-2-methyl-5-oxo-5,6-dihydroimidazo[1,2-c]pyrimidine-8-carboxamide] the same measures were 5.53 µM, 28%, > 10 µM and < 5%.
For `Cc1cn2c(=O)n(Cc3ccc(-n4cccn4)cc3)cc(C(=O)N[C@H]3CCOC[C@@H]3O)c2n1` [Compound B27, 6-(4-(1H-pyrazol-1-yl)benzyl)-N-((3R,4S)-3-hydroxytetrahydro-2H-pyran-4-yl)-2-methyl-5-oxo-5,6-dihydroimidazo[1,2-c]pyrimidine-8-carboxamide] the same measures were ≥ 10 µM, 30%, > 10 µM and < 5%.
For `Cc1cn2c(=O)n(Cc3ccc(-n4cccn4)cc3)cc(C(=O)N[C@H]3CCCC[C@@H]3O)c2n1` [Compound B28, 6-(4-(1H-pyrazol-1-yl)benzyl)-N-((1S,2S)-2-hydroxycyclohexyl)-2-methyl-5-oxo-5,6-dihydroimidazo[1,2-c]pyrimidine-8-carboxamide] the same measures were ≥ 10 µM, 30%, > 10 µM and < 5%.
Regarding `Cc1cn2c(=O)n(Cc3c(F)cc(-c4cccc5nn(C)cc45)cc3F)cc(C(=O)N[C@H]3CCOC[C@@H]3O)c2n1` [Compound B29, 6-(2,6-difluoro-4-(2-methyl-2H-indazol-4-yl)benzyl)-N-((3R,4S)-3-hydroxytetrahydro-2H-pyran-4-yl)-2-methyl-5-oxo-5,6-dihydroimidazo[1,2-c]pyrimidine-8-carboxamide], the EC50 at human mAChR M1 [1] was 4.31 µM; at human mAChR M1 [2] it was > 10 µM. Also, the Emax at human mAChR M1 [1] is 40%; at human mAChR M1 [2], < 5%.
For `Cc1cn2c(=O)n(Cc3c(F)cc(-c4cccc5nn(C)cc45)cc3F)cc(C(=O)N[C@H]3CCCC[C@@H]3O)c2n1` [Compound B30, 6-(2,6-difluoro-4-(2-methyl-2H-indazol-4-yl)benzyl)-N-((1S,2S)-2-hydroxycyclohexyl)-2-methyl-5-oxo-5,6-dihydroimidazo[1,2-c]pyrimidine-8-carboxamide], in that order: 5.89 µM, > 10 µM, 27% and < 5%.
For `Cn1nccc1-c1ccc(Cn2cc(C(=O)N[C@H]3CCOC[C@@H]3O)c3nccn3c2=O)c(F)c1` [Compound B31, 6-(2-fluoro-4-(1-methyl-1H-pyrazol-5-yl)benzyl)-N-((3R,4S)-3-hydroxytetrahydro-2H-pyran-4-yl)-5-oxo-5,6-dihydroimidazo[1,2-c]pyrimidine-8-carboxamide] the same measures were 1.13 µM, > 10 µM, 82% and 6%.
As to `Cn1nccc1-c1ccc(Cn2cc(C(=O)N[C@H]3CCCC[C@@H]3O)c3nccn3c2=O)c(F)c1` [Compound B32, 6-(2-fluoro-4-(1-methyl-1H-pyrazol-5-yl)benzyl)-N-((1S,2S)-2-hydroxycyclohexyl)-5-oxo-5,6-dihydroimidazo[1,2-c]pyrimidine-8-carboxamide], the half-maximal effective concentration (EC50) on human mAChR M1 [1] was 0.89 µM; on human mAChR M1 [2], > 10 µM. Besides, the values for the Emax on human mAChR M1 [1] and on human mAChR M1 [2] were 80% and < 5%, respectively.
Take `Cn1nccc1-c1ccc(Cn2cc(C(=O)N[C@H]3CCC[C@@H]3O)c3nccn3c2=O)c(F)c1` [Compound B33, 6-(2-fluoro-4-(1-methyl-1H-pyrazol-5-yl)benzyl)-N-((1S,2S)-2-hydroxycyclopentyl)-5-oxo-5,6-dihydroimidazo[1,2-c]pyrimidine-8-carboxamide]: on human mAChR M1 [1], the EC50 turned out to be 2.23 µM and the Emax was 57%. Also, on human mAChR M1 [2], the EC50 was > 10 µM and the Emax was < 5%.

These data come from US20220041606A1, “POSITIVE ALLOSTERIC MODULATORS OF THE MUSCARINIC ACETYLCHOLINE RECEPTOR M1” (Vanderbilt University, priority 2020, published 2022).
